Measured values as given in publication PMC10585379, “Hydrophobic moment drives penetration of bacterial membranes by transmembrane peptides” (The Journal of Biological Chemistry, 2023).
≈ marks a conversion by molar mass, not a printed value. Where a SMILES comes first, the peptide text is derived from it. [ ]: non-standard residue; d: D form. Sar = CNCC(=O)O

What was measured:
E. coli K12 [1] = assay type: cell-based, Escherichia coli; settings: E. coli K12, Mueller-Hinton broth, 50,000 CFU/well, up to 64 μM peptide, 37 °C, 20 h, OD 600 nm; concentration giving >99% reduction in growth; mean and standard deviation of the mean
Protocol: Overnight cultures of E. coli K-12 grown in Mueller-Hinton broth were incubated at 50,000 CFU/well with up to 64 μM of peptide in 96-well plates (Corning, Ref 3598). Plates were then incubated at 37 °C for 20 h, after which the optical density (OD) was measured at 600 nm. Minimum inhibitory concentration (MIC) was determined as the peptide concentration resulting in >99% reduction in growth.

E. coli K12 [2] = assay type: cell-based, Escherichia coli; settings: E. coli K12 in M9 minimal media, 30 μM DiOC2(3) 5 min, 20 μM CCCP or 8 μM peptide, 37 °C, up to 180 min, ex 450/em 510 nm; duplicate, three independent days
Protocol: Overnight cultures of E. coli K12 grown in Luria-Bertani (LB) broth were pelleted and resuspended to an OD600 of 0.4 in M9 minimal media. Cultures were grown at 37 °C for 30 min prior to being incubated with 10 mM EDTA for 5 min. Cultures were pelleted again and resuspended in fresh M9 minimal media to remove EDTA before the addition of 30 μM 3,3′-diethyloxacarbocynanine iodide (DiOC2 ([3]); Invitrogen). […] Fluorescence was measured immediately at 37 °C every 3 min for up to 3 h using a SpectraMax Gemini EM microplate reader set to 450 nm excitation and 510 nm emission wavelengths. Fluorescence curves were normalized to wells containing only dye and then plotted and analyzed using GraphPad Prism 9. Data at 15-min intervals are presented as mean and standard deviation of the mean for ease of visualization. Experiments were performed in duplicate and repeated on three independent days.

[3] = Tryptophan quenching assay with dibrominated lipid LUVs; assay type: physicochemical; settings: 5 μM peptide or BSA, peptide-to-lipid ratio of 62.5, 0-30% brominated lipid, Stern-Volmer plot; mean of three independent analyses
Protocol: Large unilamellar vesicles (LUVs) were prepared using methods previously described ([14]). Briefly, 1-palmitoyl-2-oleoyl-sn-glycero-3-phosphoethanolamine (POPE) and 1-palmitoyl-2-oleoyl-sn-glycero-3-phospho-(1′-rac-glycerol) (POPG) (Avanti Polar Lipids) were combined in a 3:1 ratio, respectively, in chloroform and dried to a film before water washing and lyophilizing into a powder. This powder was resuspended in Tris-Cl buffer (10 mM Tris, 10 mM NaCl, pH 7), freeze-thawed 5× (dry ice – 50 °C water bath) and extruded through a mini-extruder fitted with a 0.2 μm Whatman Nuclepore polycarbonate membrane filter (Cytiva) at least 15× to form LUVs. Where applicable, 1-palmitoyl-2-(6,7-dibromo)stearoyl-sn-glycero-3-phosphocholine (PC-Br ([6], [7])) or 1-palmitoyl-2-(11,12-dibromo)stearoyl-sn-glycero-3-phosphocholine (PC-Br ([11], [12])) (Avanti Polar Lipids) were substituted for POPE at the given percentages and incorporated into LUVs as described.
Brominated lipid-containing LUVs (0%, 10%, 20%, and 30%) were combined with 5 μM peptide and tryptophan emission fluorescence was recorded from 300 to 400 nm using a 280 nm excitation wavelength. Fluorescence spectra were plotted and the area under the curve was used to generate a Stern-Volmer plot of initial fluorescence/quenched fluorescence (Fo/F) against percentage brominated lipid. […]

[4] = Circular dichroism, peptide secondary structure; assay type: physicochemical; settings: 20 μM peptide, 10 mM Tris-Cl, 10 mM NaCl, pH 7, minima at 208 and 222 nm, average of three independent analyses
Protocol: Circular dichroism (CD) spectra of peptides were recorded between 190 and 250 nm on a Jasco J-1500 CD spectropolarimeter using a 0.1 cm pathlength quartz cuvette, scanning at […] with three accumulations. Peptide spectra were acquired in either water, 20% acetonitrile, 140 mM sodium dodecyl sulfate (SDS), or 3:1 POPE:POPG, in buffer (10 mM Tris-Cl, 10 mM NaCl, pH 7), at a constant peptide concentration of 20 μM and then plotted using GraphPad Prism 9. Data are presented from 200 to 250 nm for ease of visualization. Raw millidegree (mdeg) spectra were background subtracted and converted to mean residue ellipticity (MRE) using Equation 1 below, where c is the concentration in μM, l is the pathlength in cm, and n is the number of residues.(1) MRE=100(mdeg)/cln
Using the MRE value at 222 nm, the peptide helical percentage was estimated using Equation 2 below ([45], [46]), where MRE222 is the MRE value at 222 nm and n is the number of peptide bonds.(2) %Helix=100(MRE222/(−39,500(1−2.57/n)))

Molecule	MIC (E. coli K12 [1])	Dissipation of the proton motive force (DiOC2(3) RFU) (E. coli K12 [2])	Tryptophan fluorescence quenching by PC-Br(11,12)-containing LUVs (depth of insertion) [3]	Peptide secondary structure in the aqueous phase (CD) [4]
CC[C@H](C)[C@H](NC(=O)CN)C(=O)NCC(=O)N[C@@H](C)C(=O)N[C@H](C(=O)N[C@@H](CC(C)C)C(=O)N[C@@H](CCCCN)C(=O)N[C@H](C(=O)N[C@@H](CC(C)C)C(=O)N[C@H](C(=O)N[C@H](C(=O)NCC(=O)N[C@@H](CC(C)C)C(=O)N1CCC[C@H]1C(=O)N[C@@H](C)C(=O)N[C@@H](CC(C)C)C(=O)N[C@H](C(=O)N[C@@H](CO)C(=O)N[C@@H](Cc1c[nH]c2ccccc12)C(=O)N[C@H](C(=O)N[C@@H](CCCCN)C(=O)N[C@@H](CCCNC(=N)N)C(=O)N[C@@H](CCCCN)C(=O)N[C@@H](CCCNC(=N)N)C(=O)N[C@@H](CCC(N)=O)C(=O)N[C@@H](CCC(N)=O)C(N)=O)[C@@H](C)CC)[C@@H](C)CC)[C@@H](C)O)[C@@H](C)O)C(C)C)C(C)C [Melittin, reference compound]	5 ± 2 µM (≈ 14.2 µg/mL)	–	–	–
CC[C@H](C)[C@H](NC(=O)[C@H](C)NC(=O)[C@H](CC(C)C)NC(=O)CNC(=O)CNC(=O)[C@H](C)NC(=O)[C@H](CC(C)C)NC(=O)[C@H](CCSC)NC(=O)[C@@H](NC(=O)[C@@H](NC(=O)[C@@H](NC(=O)[C@H](C)NC(=O)[C@@H](NC(=O)[C@@H](NC(=O)[C@H](Cc1c[nH]c2ccccc12)NC(=O)[C@H](C)NC(=O)[C@H](Cc1ccccc1)NC(=O)[C@@H](NC(=O)[C@@H]1CCCN1C(=O)CN(C)C(=O)CN(C)C(=O)CN(C)C(=O)[C@H](C)NC(C)=O)[C@@H](C)CC)C(C)C)[C@@H](C)CC)[C@@H](C)CC)[C@@H](C)CC)[C@@H](C)CC)C(=O)N[C@@H](CC(C)C)C(=O)N[C@@H](CCCCN)C(=O)N[C@@H](CC(C)C)C(=O)N[C@@H](CCCCN)C(=O)N[C@@H](CCCCN)C(=O)N[C@@H](CCCCN)C(=O)N[C@@H](CCCCN)C(N)=O [TM1-1] (Ac-A[Sar][Sar][Sar]PIFAWVIAIIIMLAGGLAILKLKKKK-NH2)	>64 µM	re-establish the PMF back in the range of untreated cultures	–	–
CC[C@H](C)[C@H](NC(=O)[C@H](C)NC(=O)[C@@H](NC(=O)[C@H](CC(C)C)NC(=O)[C@@H](NC(=O)[C@H](Cc1c[nH]c2ccccc12)NC(=O)CNC(=O)[C@H](C)NC(=O)[C@H](CCSC)NC(=O)[C@H](C)NC(=O)CNC(=O)[C@H](Cc1ccccc1)NC(=O)[C@@H](NC(=O)[C@H](CC(C)C)NC(=O)[C@H](CC(C)C)NC(=O)[C@@H](NC(=O)[C@@H]1CCCN1C(=O)[C@@H](NC(=O)CN(C)C(=O)CN(C)C(=O)CN(C)C(=O)[C@H](C)NC(C)=O)C(C)C)[C@@H](C)CC)[C@@H](C)CC)[C@@H](C)CC)[C@@H](C)CC)C(=O)N[C@H](C(=O)N[C@@H](C)C(=O)N[C@@H](CCCCN)C(=O)N[C@@H](CC(C)C)C(=O)N[C@@H](CCCCN)C(=O)N[C@@H](CCCCN)C(=O)N[C@@H](CCCCN)C(=O)N[C@@H](CCCCN)C(N)=O)[C@@H](C)CC [TM1-2] (Ac-A[Sar][Sar][Sar]VPILLIFGAMAGWILIAIIAKLKKKK-NH2)	>64 µM	re-establish the PMF back in the range of untreated cultures	–	–
CC[C@H](C)[C@H](NC(=O)CNC(=O)[C@H](CC(C)C)NC(=O)[C@H](Cc1c[nH]c2ccccc12)NC(=O)[C@H](C)NC(=O)[C@@H](NC(=O)[C@@H](NC(=O)[C@H](CCSC)NC(=O)[C@@H](NC(=O)[C@H](C)NC(=O)[C@H](Cc1ccccc1)NC(=O)[C@H](C)NC(=O)[C@H](CC(C)C)NC(=O)[C@H](CC(C)C)NC(=O)CNC(=O)[C@@H]1CCCN1C(=O)[C@@H](NC(=O)CN(C)C(=O)CN(C)C(=O)CN(C)C(=O)[C@H](C)NC(C)=O)C(C)C)[C@@H](C)CC)[C@@H](C)CC)[C@@H](C)CC)C(=O)N[C@@H](C)C(=O)N[C@H](C(=O)N[C@H](C(=O)N[C@@H](CCCCN)C(=O)N[C@@H](CC(C)C)C(=O)N[C@@H](CCCCN)C(=O)N[C@@H](CCCCN)C(=O)N[C@@H](CCCCN)C(=O)N[C@@H](CCCCN)C(N)=O)[C@@H](C)CC)[C@@H](C)CC [TM1-3] (Ac-A[Sar][Sar][Sar]VPGLLAFAIMIIAWLGIAIIKLKKKK-NH2)	>64 µM	–	penetrate deeper into the lipid bilayer	–
CC[C@H](C)[C@H](NC(=O)[C@H](C)NC(=O)[C@H](CCSC)NC(=O)[C@H](C)NC(=O)[C@@H](NC(=O)[C@H](Cc1ccccc1)NC(=O)CNC(=O)[C@H](CC(C)C)NC(=O)[C@H](CC(C)C)NC(=O)CNC(=O)[C@@H]1CCCN1C(=O)[C@@H](NC(=O)CN(C)C(=O)CN(C)C(=O)CN(C)C(=O)[C@H](C)NC(C)=O)C(C)C)[C@@H](C)CC)C(=O)N[C@@H](Cc1c[nH]c2ccccc12)C(=O)N[C@H](C(=O)N[C@@H](CC(C)C)C(=O)N[C@H](C(=O)N[C@@H](C)C(=O)N[C@H](C(=O)N[C@H](C(=O)N[C@@H](C)C(=O)N[C@@H](CCCCN)C(=O)N[C@@H](CC(C)C)C(=O)N[C@@H](CCCCN)C(=O)N[C@@H](CCCCN)C(=O)N[C@@H](CCCCN)C(=O)N[C@@H](CCCCN)C(N)=O)[C@@H](C)CC)[C@@H](C)CC)[C@@H](C)CC)[C@@H](C)CC [TM1-4] (Ac-A[Sar][Sar][Sar]VPGLLGFIAMAIWILIAIIAKLKKKK-NH2)	>64 µM	–	penetrate deeper into the lipid bilayer	strongest helix
carbonyl cyanide m-chlorophenylhydrazine [CCCP, reference compound]	–	immediate increase in RFU	–	–
